This is an account of results in patent US20050175599A1, “Process for producing substance” (Kyowa Hakko Kogyo Co., Ltd., priority 2001, published 2005).

In the assay the test system is transformant cell line NS0/LCA-CCR4 producing chimeric anti-CCR4 antibody. The assay is described as follows: Batch culture of antibody-producing cells in Q10-containing serum fraction-added medium (Example 4). To be noted: 100 μmol/L Q10 (added as SANOMIT), 4th day. In kind it is cell-based, mouse. On the procedure: The batch culture was performed using transformant cell line NS0/LCA-CCR4 (FERM BP-7964) producing chimeric anti-CCR4 antibody as prepared in Reference Example 1. […]
The cumulative number of viable cells is shown as the total sum of the viable cell density multiplied by the time as elapsed. In the present Example, as the viable cell density was measured once, the cumulative number of viable cells was calculated by the following equation as a trapezoidal area formed by the change of the cell density with time related to the inoculated cell density and the measured cell density. Cumulative number of viable cells (cells/mL×days)=(inoculated cell density+measured cell density)×time as elapsed÷2
The specific antibody production rate and the relative specific antibody production rate were calculated respectively by the method described in Example 1.
(3) Quantitative Determination of an Antibody in a Culture Supernatant by IgG-ELISA
The concentration of chimeric anti-CCR4 antibody in the culture supernatant was measured as follows. […]

As to `COC1=C(OC)C(=O)C(C/C=C(\C)CC/C=C(\C)CC/C=C(\C)CC/C=C(\C)CC/C=C(\C)CC/C=C(\C)CC/C=C(\C)CC/C=C(\C)CC/C=C(\C)CCC=C(C)C)=C(C)C1=O` [Q10], the “cumulative number of cells on the completion of culturing” value (Q10-free culture 1.59×10^6) was 1.34×10^6 cells/mL×days. Besides, under “Q10-free culture = 100%”, the “relative specific antibody production rate” value is recorded as 131.9%.
